Reference: article PMC10133251, “An intrinsic purine metabolite AICAR blocks lung tumour growth by targeting oncoprotein mucin 1” (British Journal of Cancer, 2023)

How the values were obtained:
in vitro = experiment: in vitro; parameters: species or system panel of lung tumour and stromal cell lines; CellTiter-Glo luminescent cell viability, 2D monolayer, 3000 cells per well in 96-well plate, vehicle-normalised; conditions: panel of lung tumour and stromal cell lines, EC50 (mM), viability, given as EC50
Description: (§1) For 2D monolayer cell cultures, 3000 cells were plated into each well of a white 96-well plate in three replicates. After attachment, the cells were treated with AICAR, VX-509, osimertinib, and ABT-702 alone or in combinations for 72 h. The cell viability was measured at the treatment endpoint using the CellTiter-Glo® luminescent cell viability assay kit (Promega, Cat #G7570) according to the manufacturer’s instructions. The luminescent signal was recorded as relative light units (RLU). For 3D organoid cultures, the cell viability was measured using CellTiter-Glo 3D® Cell Viability Assay (Promega, Cat #G9681) according to the manufacturer’s protocol. The relative cell viability treated with the vehicle was normalised as 1. To explore the effects of AICAR treatment on lung cancer cell lines, we performed a cell viability assay using a panel of lung cancer cell lines based on the status of EGFR mutations (Table S1). […] To understand whether AICAR’s effects are dependent upon EGFR mutations, we tested drug response in another panel of lung cancer cells with wild-type EGFR, including H358, H23, H441, A549, and H69 (Fig. 1b). […] To examine if there was any toxicity in stromal cells, we measured AICAR treatment response in a panel of primary lung stromal cell lines, including CCD-13Lu (fibroblasts), HULEC-5A (endothelial cells), and NR8383 (macrophages). […] The cell viability was measured three days after treatment. […] The cell viability was measured three days after treatment. […] The cell viability was measured three days after treatment. […] N = 3 replicates. d Quantification of EC50 in EGFR mutant, wild-type, and non-malignant stromal lung cells. […] After treatment, the apoptotic cells were quantified by flow cytometry analysis of cells stained with Annexin-V-APC and 7AAD. […] After treatment, the apoptotic cells were quantified by flow cytometry analysis of cells stained with Annexin-V-APC and 7AAD. N = 4 replicates. i, j Western blotting and relative quantification for expression levels of γ-H2AX (S139), H2AX, p-p53 (S33), p53, and […]

NR8383 = experiment: in vitro; parameters: species or system panel of lung tumour and stromal cell lines; CellTiter-Glo luminescent cell viability, 2D monolayer, 3000 cells per well in 96-well plate, vehicle-normalised; conditions: viability, 72 h; given as EC50; inhibitor
Description: as §1

HULEC-5A = experiment: in vitro; parameters: species or system panel of lung tumour and stromal cell lines; CellTiter-Glo luminescent cell viability, 2D monolayer, 3000 cells per well in 96-well plate, vehicle-normalised; conditions: viability, 72 h; given as EC50; inhibitor
Description: as §1

MUC1-CT = target: T1, MUC1-CT (Homo sapiens, UniProt P15941); experiment: cellular thermal shift assay, western blot; type: cell-based; conditions: intact H1975 cells, 1 mM AICAR for 15 min, heated 3 min at 37-55 °C; stabilisation shown as curve only, no Tm; intracellular phosphorylation to ZMP possible
T1 construct: endogenous C-terminal beta subunit (MUC1-CT) of the cleaved MUC1 precursor in intact H1975 cells; detected by western blot with anti-MUC1-CT
T1 sequence (P15941 1098-1255 limits assumed): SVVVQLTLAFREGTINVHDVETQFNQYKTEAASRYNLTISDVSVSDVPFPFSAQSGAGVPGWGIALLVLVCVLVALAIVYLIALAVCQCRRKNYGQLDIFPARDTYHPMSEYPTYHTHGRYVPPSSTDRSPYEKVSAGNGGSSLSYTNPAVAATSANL

H3255 = experiment: cells; parameters: species or system panel of lung tumour and stromal cell lines; CellTiter-Glo luminescent cell viability, 2D monolayer, 3000 cells per well in 96-well plate, vehicle-normalised; conditions: Homo sapiens, NCI-H3255; viability, 72 h
Description: (§2) For 2D monolayer cell cultures, 3000 cells were plated into each well of a white 96-well plate in three replicates. After attachment, the cells were treated with AICAR, VX-509, osimertinib, and ABT-702 alone or in combinations for 72 h. The cell viability was measured at the treatment endpoint using the CellTiter-Glo® luminescent cell viability assay kit (Promega, Cat #G7570) according to the manufacturer’s instructions. The luminescent signal was recorded as relative light units (RLU). For 3D organoid cultures, the cell viability was measured using CellTiter-Glo 3D® Cell Viability Assay (Promega, Cat #G9681) according to the manufacturer’s protocol. The relative cell viability treated with the vehicle was normalised as 1. To explore the effects of AICAR treatment on lung cancer cell lines, we performed a cell viability assay using a panel of lung cancer cell lines based on the status of EGFR mutations (Table S1). […] To understand whether AICAR’s effects are dependent upon EGFR mutations, we tested drug response in another panel of lung cancer cells with wild-type EGFR, including H358, H23, H441, A549, and H69 (Fig. 1b). The average EC50 of tested EGFR wild-type cell lines (1.31 ± 0.18 mM) was higher than that of EGFR-mutant cell lines upon AICAR treatment (p < 0.05). To examine if there was any toxicity in stromal cells, we measured AICAR treatment response in a panel of primary lung stromal cell lines, including CCD-13Lu (fibroblasts), HULEC-5A (endothelial cells), and NR8383 (macrophages). […] 3000 cells (H3255, PC9-ER, HCC827, H1650, PC9, and H1975) were plated in a 96-well plate and treated with increasing doses of AICAR (0–10 mM). The cell viability was measured three days after treatment. Values were normalised to a vehicle-treated control group. N = 3 replicates. b Cell viability assay of AICAR in EGFR wild-type lung adenocarcinoma and small cell lung cancer cell lines. 3000 cells (A549, H23, H69, H358, and H441) were plated in a 96-well plate and treated with increasing doses of AICAR (0–10 mM). The cell viability was measured three days after treatment. Values were normalised to a vehicle-treated control group. N = 3 replicates. c Cell viability assay of AICAR in multiple types of primary lung stromal cells. 3000 cells (macrophages NR8383, endothelial cells HULEC-5A, and fibroblasts CCD-13Lu) were plated in a 96-well plate and treated with increasing doses of AICAR (0–10 mM). The cell viability was measured three days after treatment. Values were normalised to a vehicle-treated control group. N = 3 replicates. d Quantification of EC50 in EGFR mutant, wild-type, and non-malignant stromal lung cells. N = 3 replicates. e Flow cytometry analysis for time-dependent apoptosis in EGFR-mutant H1975 cells treated with AICAR. H1975 cells were plated in a 24-well plate and treated with AICAR (1 mM) for 0, 4, 7, and 16 h. After treatment, the apoptotic cells were quantified by flow cytometry analysis of cells stained with Annexin-V-APC and 7AAD. N = 4 replicates. f–h Flow cytometry analysis for apoptosis in multiple cell lines treated with AICAR. EGFR-mutant PC9 (f) and EGFR wild-type A549 (g) and H23 (h) cells were plated in a 24-well plate and treated with AICAR (1 mM) and vehicle control for 7 h. After treatment, the apoptotic cells were quantified by flow cytometry analysis of cells stained with Annexin-V-APC and 7AAD. N = 4 replicates. i, j Western blotting and relative quantification for expression levels of γ-H2AX (S139), H2AX, p-p53 (S33), p53, and […]

H1650 = experiment: cells; parameters: species or system panel of lung tumour and stromal cell lines; CellTiter-Glo luminescent cell viability, 2D monolayer, 3000 cells per well in 96-well plate, vehicle-normalised; conditions: Homo sapiens, NCI-H1650; viability, 72 h
Description: as §2

HCC827 = experiment: cells; parameters: species or system panel of lung tumour and stromal cell lines; CellTiter-Glo luminescent cell viability, 2D monolayer, 3000 cells per well in 96-well plate, vehicle-normalised; conditions: Homo sapiens, HCC827; viability, 72 h
Description: as §2

H441 = experiment: cells; parameters: species or system panel of lung tumour and stromal cell lines; CellTiter-Glo luminescent cell viability, 2D monolayer, 3000 cells per well in 96-well plate, vehicle-normalised; conditions: Homo sapiens, NCI-H441; viability, 72 h
Description: as §2

H358 = experiment: cells; parameters: species or system panel of lung tumour and stromal cell lines; CellTiter-Glo luminescent cell viability, 2D monolayer, 3000 cells per well in 96-well plate, vehicle-normalised; conditions: Homo sapiens, NCI-H358; viability, 72 h
Description: as §2

H69 = experiment: cells; parameters: species or system panel of lung tumour and stromal cell lines; CellTiter-Glo luminescent cell viability, 2D monolayer, 3000 cells per well in 96-well plate, vehicle-normalised; conditions: Homo sapiens, NCI-H69; viability, 72 h
Description: as §2

PC9-ER = experiment: cells; parameters: species or system panel of lung tumour and stromal cell lines; CellTiter-Glo luminescent cell viability, 2D monolayer, 3000 cells per well in 96-well plate, vehicle-normalised; conditions: Homo sapiens, PC-9/ER; viability, 72 h
Description: as §2

PC9 = experiment: cells; parameters: species or system panel of lung tumour and stromal cell lines; CellTiter-Glo luminescent cell viability, 2D monolayer, 3000 cells per well in 96-well plate, vehicle-normalised; conditions: Homo sapiens, PC-9; viability, 72 h
Description: as §2

H23 = experiment: cells; parameters: species or system panel of lung tumour and stromal cell lines; CellTiter-Glo luminescent cell viability, 2D monolayer, 3000 cells per well in 96-well plate, vehicle-normalised; conditions: Homo sapiens, NCI-H23; viability, 72 h
Description: as §2

H1975 = experiment: cells; parameters: species or system panel of lung tumour and stromal cell lines; CellTiter-Glo luminescent cell viability, 2D monolayer, 3000 cells per well in 96-well plate, vehicle-normalised; conditions: Homo sapiens, NCI-H1975; viability, 72 h
Description: as §2

A549 = experiment: cells; parameters: species or system panel of lung tumour and stromal cell lines; CellTiter-Glo luminescent cell viability, 2D monolayer, 3000 cells per well in 96-well plate, vehicle-normalised; conditions: Homo sapiens, A549; viability, 72 h
Description: as §2

NC(=O)c1ncn([C@@H]2O[C@H](CO)[C@@H](O)[C@H]2O)c1N [AICAR]
CC50 at 72 h (in vitro): 1.03 mM | CC50 (NR8383): 1110 µM | CC50 (HULEC-5A): 1450 µM | thermal stability (MUC1-CT): AICAR incubation in H1975 cells significantly increased protein stability in MUC1-CT than vehicle-treated groups | EC50 (H3255): 320 µM | EC50 (H1650): 420 µM | EC50 (HCC827): 880 µM | EC50 (H441): 640 µM | EC50 (H358): 1280 µM | EC50 (H69): 1440 µM | EC50 (PC9-ER): 410 µM | EC50 (PC9): 300 µM | EC50 (H23): 1610 µM | EC50 (H1975): 298 µM | EC50 (A549): 1600 µM
